Reference: patent US20050037975A1, “Method for treatment of glutamate related disorders” (priority 1997, published 2005)
Marks after values point to notes of the source that are not given here.

Assays:
[1] = test system: ALDH2; assay: In vitro inactivation of aldehyde dehydrogenase; type: biochemical
Procedure: To test whether the protective effect of DETC-MeSO in hyperbaric O2-induced convulsions in mice could be due to inhibition of succinic semi-aldehyde dehydrogenase (SSA DH), mechanistically related to ALDH2, the sensitivity of SSA DH to inactivation by DETC-MeSO was determined. Potentially, inhibition of SSA DH in brain could offset the build up of ammonia known to occur and produce more GABA. In vitro both ALDH2 and SSA DH are inactivated by DETC-MeSO at 47 M-1 s-1 and 300 M-1 s-1, respectively.

[2] = biological target: T1, brain or liver SSA DH (Mus musculus, UniProt Q8BWF0); assay: In vivo effect on brain or liver SSA DH levels; details: up to 100 mg/kg i.p.
T1 construct: with no effect on the levels of brain or liver SSA DH; from tissue; host or cells: brain or liver of treated animals
T1 sequence (Q8BWF0 36-523): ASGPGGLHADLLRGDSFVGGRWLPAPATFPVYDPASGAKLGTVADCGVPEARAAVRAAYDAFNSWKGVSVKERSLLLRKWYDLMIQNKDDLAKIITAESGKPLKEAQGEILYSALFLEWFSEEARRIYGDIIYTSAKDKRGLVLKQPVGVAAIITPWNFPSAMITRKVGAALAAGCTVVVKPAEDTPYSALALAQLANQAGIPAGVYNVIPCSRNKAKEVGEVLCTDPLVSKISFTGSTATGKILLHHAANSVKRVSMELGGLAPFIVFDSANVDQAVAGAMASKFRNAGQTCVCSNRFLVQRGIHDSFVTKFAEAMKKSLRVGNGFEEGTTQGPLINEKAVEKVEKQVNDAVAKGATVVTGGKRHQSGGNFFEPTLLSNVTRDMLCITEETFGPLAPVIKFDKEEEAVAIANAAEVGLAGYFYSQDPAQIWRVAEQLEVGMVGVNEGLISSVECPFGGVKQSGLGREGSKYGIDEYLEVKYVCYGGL

[3] = test system: NMDA-induced seizures; assay: NMDA-induced seizures in mice; type: in vivo
Procedure: Animals—Male Swiss Webster mice (20-30 g) or male Sprague-Dawley rats (250-300 g) were used. All that employed animals were conducted in strict compliance with the NIH guidelines on animal use and institutional regulations concerning animal experimentation. Animals were exposed to hyperbaric oxygen in a specify designed press chamber as previously described (M. D. Faiman et al., Biochem. Pharmacol., 20, 3049-3067 (1971); M. D. Faiman et al. Aerosp. Med.,45, 29032.(1974)). The time to first clonic-tonic seizure after brining animals to a final pressure of five atmospheres of 100% oxygen or after intraperitoneal injection of convulsants was noted by. criteria outlined previously (M. D. Faiman et al. (1971), supra M. D. Faiman et al. (1974), supra). Unless otherwise specified, the ability of DETC-MeSO to prevent seizures was tested by intraperitoneal injection of 5.2 mg/kg of DETC-MeSO 1-2 hours prior to bringing the animal to a final pressure of 5 atmospheres of 100% oxygen or intraperitoneal injection of N-methyl-D-asparate (NMA) (125 mg/kg) r L-methionine sulfoximine (MetSOX) (250 mg/kg). Evaluation of the statistics for whole animal experiments or for changes in brain glutamate binding after administration of DETC-MeSO was conducted by use of the program GraphPAD InStat from Graph PAD Software (San Diego, Calif.).

[4] = biological target: T2, rat liver mitochondrial low Km ALDH (Rattus norvegicus, UniProt P11884); assay: Liver aldehyde dehydrogenase determined in vivo; details: intraperitoneal (IP), liver taken eight hours later
T2 construct: differential centrifugation carried out to isolate the mitochondrial faction; from tissue; host or cells: liver mitochondria of male Sprague-Dawley derived rats
T2 sequence (P11884 20-519): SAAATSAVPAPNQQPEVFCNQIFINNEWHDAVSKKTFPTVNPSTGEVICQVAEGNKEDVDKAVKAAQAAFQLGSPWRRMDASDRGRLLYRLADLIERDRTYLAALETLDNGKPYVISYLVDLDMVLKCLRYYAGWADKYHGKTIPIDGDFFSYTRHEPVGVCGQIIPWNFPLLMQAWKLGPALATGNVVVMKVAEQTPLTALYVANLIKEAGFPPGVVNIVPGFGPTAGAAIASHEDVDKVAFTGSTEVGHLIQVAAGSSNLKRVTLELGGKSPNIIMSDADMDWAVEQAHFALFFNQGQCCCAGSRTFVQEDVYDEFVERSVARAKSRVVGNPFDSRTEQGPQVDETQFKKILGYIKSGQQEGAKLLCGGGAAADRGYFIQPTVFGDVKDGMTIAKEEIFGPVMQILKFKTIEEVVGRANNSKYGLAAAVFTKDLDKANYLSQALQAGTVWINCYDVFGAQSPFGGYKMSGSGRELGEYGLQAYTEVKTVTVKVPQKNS
Procedure: To determine if a compound of formula (I) can inhibit aldehyde dehydrogenase activity in vivo, doses of DETC-Me SO (1.3 mg/kg, 2.6 mg/kg, 5.2 mg/kg, 10.3 mg/kg and 20.6 mg/kg), were administered to male Sprague Dawley derived rats weighing 200-400 g. The rats were bred from a resident colony maintained in the Animal Care Unit at the University of Kansas. Rats were maintained on a 12-hour lights cycle with access to food and water ad lib until the night before an experiment, at which time food was removed. Animals were fasted for 12 hours prior to drug administration.
All experiments were carried out in the morning. Rats were treated with the doses of DETC-Me SO or DETC-Me described above, which were dissolved in polyethylene glycol 200. Eight hours later, the rats were anesthetized with carbon-dioxide and then decapitated. The liver was quickly removed and the low Km aldehyde dehydrogenase determined. Control rats were treated with […] vehicle only, and each control data point also represents an average of four rats.
The liver from drug-treated and control rats was homogenized in 0.25 M sucrose and differential centrifugation was carried out to isolate the mitochondrial fraction. The mitochondria were solubilized with sodium deoxycholate, and mitochondrial low Km and total (high and low) aldehyde dehydrogenase activity determined by the method of S. O. C. Tottmar et al., cited above.

CCN(CC)C(=O)[S+](C)[O-] (stereo not drawn) [DETC-MeSO, S-Methyl-N,N-Diethylthiolcarbamate Sulfoxide]
inactivation rate of ALDH2 ([1]; in vitro): 47 M⁻¹ s⁻¹
rate for enzyme (ALDH) inactivation ([1]; under physiological conditions): 40 M⁻¹ s⁻¹
effect on the levels of brain or liver SSA DH [2]: no effect
effect on seizures that result from NMDA administration ([3]; NMDA 125 mg/kg i.p.): prevented seizures
number of animals that exhibited the effect/total number of animals in the group ([3]; NMDA 125 mg/kg, 5.2 mg/kg i.p. 1-2 hours prior): (0/6)^a
mean time to seizure ([3]; NMDA 125 mg/kg, 5.2 mg/kg i.p. 1-2 hours prior, observation 2 hours): >120^a min
dose required to inhibit 50% of the low Km ALDH [4]: 3.6 mg/kg
